Here are results for eleven molecules from ChEMBL document CHEMBL1201862, “PubChem BioAssay data set” (2004).

Test systems include 786-0; A498; COLO 205; DU-145; HL-60; HT-29; IGROV-1; K562; MCF7; MDA-MB-435; MDA-N; NCI-H460; OVCAR-8; PC-3; SF-268; SF-295; SN12C; UACC-257; UACC-62; LOX IMVI.
Common to all, as to test: NCI-60 cell line screen, 48 h

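Following 48 hours of exposure in 96-well plates, responses at five concentrations were used to interpolate endpoints linearly. Abbreviation: GI50, concentration required for 50% inhibition of growth.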 Calls of active or inactive are those of the source. Cut-off read from the data, not from the text of the source: active = GI50 up to about 1.1 µM and inactive = higher.

Take `COC(=O)c1csc(-c2nc(CCNC(=O)OC(C)(C)C)sc2Br)n1`: the GI50 in the experiment on 786-0, in the experiment with A498, in the experiment with COLO 205, in the experiment on DU-145, in the experiment with HL-60 and with HT-29 was > 100 µM (inactive) in each case. Further, the GI50 in the experiment with IGROV-1, in the experiment with K562, in the experiment with MCF7, in the experiment on MDA-MB-435, in the experiment on MDA-N and in the experiment on NCI-H460 was > 100 µM (inactive) throughout. The GI50 was > 100 µM (inactive) with OVCAR-8; 55.7 µM (inactive) with PC-3; > 100 µM (inactive) in the experiment on SF-268; > 100 µM (inactive) with SF-295; > 100 µM (inactive) in the experiment with SN12C; > 100 µM (inactive) in the experiment with UACC-257. Besides, the GI50 with UACC-62 is > 100 µM (inactive).
Regarding `O=[N+]([O-])/C=C/c1cccc(F)c1`, the GI50 in the experiment on 786-0 is 1.66 µM (inactive); in the experiment with A498, 13.7 µM (inactive); in the experiment on COLO 205, 2.74 µM (inactive); in the experiment with DU-145, 4.47 µM (inactive); with HT-29, 3.18 µM (inactive); with IGROV-1, 1.37 µM (inactive). Further, the GI50 with LOX IMVI was 0.912 µM (active); with MCF7, 1.05 µM (active); in the experiment on MDA-MB-435 it was 3.24 µM (inactive); with MDA-N, 2.64 µM (inactive); in the experiment on NCI-H460 it was 12.2 µM (inactive); in the experiment on OVCAR-8 it was 11.7 µM (inactive). Moreover, the GI50 in the experiment with PC-3 is 3.01 µM (inactive); with SF-268, 12.4 µM (inactive); with SF-295, 11.4 µM (inactive); in the experiment with SN12C, 17 µM (inactive); in the experiment with UACC-257 it was 3.79 µM (inactive); with UACC-62, 8.04 µM (inactive).
For the molecule `CCN1C=C/C(=C\C=C\c2cc[n+](CC)c3ccccc23)c2ccccc21`, the GI50 was 4.9 µM (inactive) with 786-0; 3.78 µM (inactive) in the experiment on A498; 3.72 µM (inactive) in the experiment on COLO 205; 4.92 µM (inactive) in the experiment on DU-145; 0.0135 µM (active) with HL-60; 3.51 µM (inactive) in the experiment with HT-29. The GI50 with IGROV-1 is 3.59 µM (inactive); in the experiment with MCF7, 6.28 µM (inactive); in the experiment on MDA-MB-435 it was 4.21 µM (inactive); in the experiment with MDA-N, 7.01 µM (inactive); in the experiment with NCI-H460 it was 3.4 µM (inactive); in the experiment with OVCAR-8, 4.28 µM (inactive). Besides, the GI50 is 4.49 µM (inactive) with PC-3; 4.99 µM (inactive) with SF-268; 3.58 µM (inactive) in the experiment on SF-295; 3.63 µM (inactive) in the experiment with SN12C; 3.18 µM (inactive) in the experiment on UACC-257; 10.8 µM (inactive) in the experiment on UACC-62.
With `COC(=O)[C@]12CSC[C@H]1C[C@H](c1ccc(N(C)C)cc1)N2`, the GI50 is > 100 µM (inactive) in the experiment with 786-0; > 28.1 µM (inactive) with A498; > 100 µM (inactive) with COLO 205; > 100 µM (inactive) with DU-145; > 100 µM (inactive) in the experiment with IGROV-1; > 100 µM (inactive) with K562. Also, the GI50 with LOX IMVI was > 100 µM (inactive); in the experiment with MCF7 it was > 100 µM (inactive); with MDA-MB-435, > 100 µM (inactive); in the experiment on MDA-N, > 62.2 µM (inactive); in the experiment on NCI-H460, > 100 µM (inactive); with OVCAR-8, > 100 µM (inactive). Also, the GI50 in the experiment on PC-3, in the experiment with SF-268, in the experiment with SF-295, in the experiment with SN12C, in the experiment on UACC-257 and in the experiment with UACC-62 was > 100 µM (inactive) in each case.
With `COc1cc(S(=O)(=O)Nc2ccc(-c3csc(/N=C\c4ccccc4O)n3)cc2)ccc1Cl`, the GI50 is > 100 µM (inactive) in the experiment on 786-0; > 100 µM (inactive) with A498; 41.2 µM (inactive) in the experiment with COLO 205; 45.9 µM (inactive) with DU-145; 24.4 µM (inactive) in the experiment on HL-60; > 100 µM (inactive) in the experiment on HT-29. Moreover, the GI50 with IGROV-1 was 56 µM (inactive); in the experiment with K562, 28.2 µM (inactive); in the experiment on LOX IMVI, 35.5 µM (inactive); in the experiment on MCF7, 22.6 µM (inactive); in the experiment on MDA-MB-435, 36.1 µM (inactive); in the experiment on MDA-N, 33.9 µM (inactive). Also, the GI50 in the experiment with OVCAR-8 is > 100 µM (inactive); in the experiment with PC-3 it was 39.4 µM (inactive); with SF-268, 42 µM (inactive); with SF-295, 31.5 µM (inactive); in the experiment on SN12C it was 65.2 µM (inactive); in the experiment with UACC-62, 31.6 µM (inactive).
Regarding `COc1cccc(C(C#N)NNC(=O)c2c(Cl)c(Cl)c(Cl)c(Cl)c2-c2nc3cc(C(=O)c4ccccc4)ccc3[nH]2)c1O` (centres undefined), the GI50 is 4.06 µM (inactive) in the experiment with 786-0; 2.05 µM (inactive) in the experiment on A498; 3.24 µM (inactive) in the experiment on COLO 205; 6.4 µM (inactive) in the experiment with DU-145; 3.59 µM (inactive) with HL-60; 4.91 µM (inactive) in the experiment with HT-29. For the same molecule, the GI50 with IGROV-1 is 5.77 µM (inactive); in the experiment on K562, 3.27 µM (inactive); in the experiment on LOX IMVI it was 5.19 µM (inactive); in the experiment with MCF7 it was 3.22 µM (inactive); in the experiment with MDA-MB-435, 1.81 µM (inactive); with MDA-N, 1.68 µM (inactive). Besides, the GI50 was 11.3 µM (inactive) in the experiment with OVCAR-8; 3.62 µM (inactive) in the experiment on PC-3; 1.74 µM (inactive) in the experiment on SF-295; 2.7 µM (inactive) in the experiment with SN12C; 9.02 µM (inactive) in the experiment with UACC-257.
Regarding `O=C(O)CCC(N/N=N/c1ccc(-c2nc3ccccc3[nH]2)cc1)C(=O)O` (centres undefined), the GI50 in the experiment with 786-0 is 52.1 µM (inactive); with A498, > 100 µM (inactive); with COLO 205, > 100 µM (inactive); with DU-145 it was > 100 µM (inactive); in the experiment on HL-60 it was 37.2 µM (inactive); in the experiment with HT-29, 58.1 µM (inactive). Moreover, the GI50 in the experiment with IGROV-1 was 20.8 µM (inactive); in the experiment with K562, 30.1 µM (inactive); in the experiment with LOX IMVI, 43.1 µM (inactive); in the experiment with MCF7, 23.1 µM (inactive); in the experiment on MDA-MB-435 it was 52.8 µM (inactive); with MDA-N, 56 µM (inactive). Moreover, the GI50 with NCI-H460 was 31.8 µM (inactive); with OVCAR-8, 34.8 µM (inactive); with PC-3, 81.8 µM (inactive); with SF-295 it was 21.6 µM (inactive); in the experiment with SN12C, 60.4 µM (inactive); in the experiment on UACC-257, > 100 µM (inactive).
With `C/C=C\C(CC(=O)O)CC(=O)NCCC1CN(S(=O)(=O)C(F)(F)F)c2ccccc21` (centres undefined), the GI50 in the experiment with 786-0, with A498, with COLO 205, with DU-145, with HT-29 and in the experiment with IGROV-1 was > 100 µM (inactive) in each case. Also, the GI50 with K562, with LOX IMVI, with MCF7, with MDA-MB-435, with MDA-N and with NCI-H460 was > 100 µM (inactive) each time. In addition, the GI50 with OVCAR-8, with PC-3, with SF-268, with SF-295, with UACC-257 and with UACC-62 was > 100 µM (inactive) each time.
Regarding `C=C(C)CCC(=O)[C@](C)(O)[C@H]1[C@H](O)C[C@@]2(C)[C@@H]3CCc4c(cc(OC5OC(CO)C(O)C(O)C5O)c(O)c4C)C3(C)C(=O)C[C@]12C` (some centres undefined), the GI50 in the experiment with 786-0, in the experiment with A498, in the experiment on COLO 205, in the experiment with DU-145, in the experiment on HT-29 and in the experiment with IGROV-1 was > 100 µM (inactive) in each case. Besides, the GI50 in the experiment on K562, with LOX IMVI, with MCF7, in the experiment on MDA-MB-435, with MDA-N and in the experiment on NCI-H460 was > 100 µM (inactive) each time. In addition, the GI50 in the experiment on OVCAR-8, in the experiment with PC-3, with SF-268, with SF-295, in the experiment with SN12C and in the experiment with UACC-257 was > 100 µM (inactive) each time. For the same molecule, in the experiment with UACC-62, the GI50 is > 100 µM (inactive).
In the case of `C1=CC(=[N+]2N=C(c3ccccc3)CC2c2ccccc2)C=CC1=C1SC(c2ccccc2)(c2ccccc2)c2ccccc21.[O-][Cl+3]([O-])([O-])[O-]` (centres undefined), the GI50 in the experiment with 786-0, with A498, in the experiment with DU-145, in the experiment with HL-60, with HT-29 and in the experiment with IGROV-1 was > 100 µM (inactive) in each case. The GI50 in the experiment on K562, with MCF7, in the experiment with MDA-MB-435, with MDA-N, with NCI-H460 and in the experiment with OVCAR-8 was > 100 µM (inactive) throughout. Further, the GI50 in the experiment with PC-3 is > 100 µM (inactive); in the experiment on SF-268, > 100 µM (inactive); in the experiment with SF-295 it was 61.8 µM (inactive); in the experiment with SN12C, > 100 µM (inactive); with UACC-62, > 100 µM (inactive).
For the molecule `COc1cc2cc(C(=O)N3CC(CCl)c4c3cc(N)c3ccccc43)[nH]c2c(OC)c1OC` (centres undefined), the GI50 with 786-0, with A498, in the experiment on COLO 205, in the experiment with DU-145, in the experiment on HT-29 and in the experiment with IGROV-1 was < 0.01 µM (active) throughout. Besides, the GI50 in the experiment on K562, in the experiment with LOX IMVI, in the experiment on MCF7, in the experiment on MDA-MB-435, in the experiment with MDA-N and in the experiment with NCI-H460 was < 0.01 µM (active) in each case. Further, the GI50 with OVCAR-8, in the experiment on PC-3, in the experiment with SF-268, in the experiment with SF-295, in the experiment on SN12C and in the experiment on UACC-257 was < 0.01 µM (active) in each case. Moreover, in the experiment with UACC-62, the GI50 is < 0.01 µM (active).
